The NIST ThermoML archive (doi:10.1016/j.jct.2018.08.013)
Values joined by “and” are separate entries in the source; they are usually repeats but may differ in a detail not shown here. Identical values can stand only once. ± gives the expanded uncertainty stated by the source.

Experiment: specific heat capacity at constant pressure; xn = mol fraction of the nth substance listed
Details: 100 kPa, Crystal of intercomponent compound 1, x2 = 0.501

Structure (SMILES): [Se] [selenium] + [Ga]
- specific heat capacity (145.47 K, relaxation calorimetry): 269.1 ± 11 J/K/kg
- specific heat capacity (153.32 K, relaxation calorimetry): 274.68 ± 11 J/K/kg
- specific heat capacity (153.34 K, relaxation calorimetry): 275.63 ± 11 J/K/kg
- specific heat capacity (153.36 K, relaxation calorimetry): 275.49 ± 11 J/K/kg
- specific heat capacity (161.23 K, relaxation calorimetry): 282.15 ± 11 J/K/kg
- specific heat capacity (161.3 K, relaxation calorimetry): 279.06 ± 11 J/K/kg
- specific heat capacity (161.31 K, relaxation calorimetry): 280.6 ± 11 J/K/kg
- specific heat capacity (169.16 K, relaxation calorimetry): 286.18 ± 12 J/K/kg
- specific heat capacity (169.22 K, relaxation calorimetry): 285.24 ± 12 J/K/kg and 284.23 ± 12 J/K/kg
- specific heat capacity (177.11 K, relaxation calorimetry): 290.02 ± 12 J/K/kg
- specific heat capacity (177.12 K, relaxation calorimetry): 289.62 ± 12 J/K/kg and 289.08 ± 12 J/K/kg
- specific heat capacity (185.02 K, relaxation calorimetry): 293.18 ± 12 J/K/kg
- specific heat capacity (185.03 K, relaxation calorimetry): 293.58 ± 12 J/K/kg
- specific heat capacity (185.05 K, relaxation calorimetry): 293.38 ± 12 J/K/kg
- specific heat capacity (192.93 K, relaxation calorimetry): 296.41 ± 12 J/K/kg
- specific heat capacity (192.95 K, relaxation calorimetry): 296.68 ± 12 J/K/kg
- specific heat capacity (192.96 K, relaxation calorimetry): 296.81 ± 12 J/K/kg
- specific heat capacity (200.83 K, relaxation calorimetry): 299.5 ± 12 J/K/kg
- specific heat capacity (200.86 K, relaxation calorimetry): 299.77 ± 12 J/K/kg
- specific heat capacity (200.88 K, relaxation calorimetry): 299.7 ± 12 J/K/kg
- specific heat capacity (208.74 K, relaxation calorimetry): 302.93 ± 12 J/K/kg
- specific heat capacity (208.76 K, relaxation calorimetry): 303 ± 12 J/K/kg
- specific heat capacity (208.8 K, relaxation calorimetry): 302.6 ± 12 J/K/kg
- specific heat capacity (216.62 K, relaxation calorimetry): 305.29 ± 12 J/K/kg
- specific heat capacity (216.66 K, relaxation calorimetry): 304.88 ± 12 J/K/kg
- specific heat capacity (216.71 K, relaxation calorimetry): 304.61 ± 12 J/K/kg
- specific heat capacity (224.53 K, relaxation calorimetry): 308.38 ± 13 J/K/kg
- specific heat capacity (224.58 K, relaxation calorimetry): 307.71 ± 13 J/K/kg
- specific heat capacity (224.64 K, relaxation calorimetry): 307.17 ± 13 J/K/kg
- specific heat capacity (232.41 K, relaxation calorimetry): 310.8 ± 13 J/K/kg
- specific heat capacity (232.48 K, relaxation calorimetry): 309.86 ± 13 J/K/kg
- specific heat capacity (232.56 K, relaxation calorimetry): 309.05 ± 13 J/K/kg
- specific heat capacity (240.31 K, relaxation calorimetry): 311.88 ± 13 J/K/kg
- specific heat capacity (240.39 K, relaxation calorimetry): 310.67 ± 13 J/K/kg
- specific heat capacity (240.46 K, relaxation calorimetry): 310.2 ± 13 J/K/kg
- specific heat capacity (248.21 K, relaxation calorimetry): 312.89 ± 13 J/K/kg
- specific heat capacity (248.3 K, relaxation calorimetry): 312.15 ± 13 J/K/kg
- specific heat capacity (248.37 K, relaxation calorimetry): 311.47 ± 13 J/K/kg
- specific heat capacity (256.11 K, relaxation calorimetry): 314.1 ± 13 J/K/kg
- specific heat capacity (256.21 K, relaxation calorimetry): 313.22 ± 13 J/K/kg
- specific heat capacity (256.27 K, relaxation calorimetry): 312.68 ± 13 J/K/kg
- specific heat capacity (262.02 K, Extra sensitive DSC): 315.04 ± 12 J/K/kg
- specific heat capacity (264.01 K, relaxation calorimetry): 314.5 ± 13 J/K/kg
- specific heat capacity (264.11 K, relaxation calorimetry): 313.9 ± 13 J/K/kg
- specific heat capacity (264.17 K, relaxation calorimetry): 313.42 ± 13 J/K/kg
- specific heat capacity (265 K, Extra sensitive DSC): 315.24 ± 12 J/K/kg
- specific heat capacity (270 K, Extra sensitive DSC): 315.51 ± 12 J/K/kg
- specific heat capacity (271.91 K, relaxation calorimetry): 315.31 ± 13 J/K/kg
- specific heat capacity (272.02 K, relaxation calorimetry): 314.5 ± 13 J/K/kg
- specific heat capacity (272.07 K, relaxation calorimetry): 314.3 ± 13 J/K/kg
- specific heat capacity (275 K, Extra sensitive DSC): 316.52 ± 12 J/K/kg
- specific heat capacity (279.81 K, relaxation calorimetry): 318.13 ± 13 J/K/kg
- specific heat capacity (279.92 K, relaxation calorimetry): 317.12 ± 13 J/K/kg
- specific heat capacity (279.96 K, relaxation calorimetry): 317.06 ± 13 J/K/kg
- specific heat capacity (280 K, Extra sensitive DSC): 317.19 ± 12 J/K/kg
- specific heat capacity (285 K, Extra sensitive DSC): 318.2 ± 12 J/K/kg
- specific heat capacity (290 K, Extra sensitive DSC): 319.21 ± 12 J/K/kg
- specific heat capacity (295 K, Extra sensitive DSC): 319.95 ± 12 J/K/kg
- specific heat capacity (299.68 K, Extra sensitive DSC): 320.55 ± 12 J/K/kg
- specific heat capacity (307 K, Extra sensitive DSC): 321.29 ± 12 J/K/kg
- specific heat capacity (310 K, Extra sensitive DSC): 322.03 ± 12 J/K/kg
- specific heat capacity (315 K, Extra sensitive DSC): 322.3 ± 13 J/K/kg
- specific heat capacity (320 K, Extra sensitive DSC): 322.91 ± 13 J/K/kg
- specific heat capacity (325 K, Extra sensitive DSC): 323.65 ± 13 J/K/kg
- specific heat capacity (330 K, Extra sensitive DSC): 324.52 ± 13 J/K/kg
- specific heat capacity (335 K, Extra sensitive DSC): 325.93 ± 13 J/K/kg
- specific heat capacity (340 K, Extra sensitive DSC): 325.93 ± 13 J/K/kg
- specific heat capacity (345 K, Extra sensitive DSC): 326.94 ± 13 J/K/kg
- specific heat capacity (350 K, Extra sensitive DSC): 328.02 ± 13 J/K/kg
- specific heat capacity (354.61 K, Extra sensitive DSC): 329.03 ± 13 J/K/kg
- specific heat capacity (358.6 K, Extra sensitive DSC): 328.76 ± 13 J/K/kg
